Data taken from US6849601B1 (priority 1998, dated 2005).
Counter-ions that a name gives are not always drawn.

Assays:
α2-adrenoceptors = test system: α2-adrenoceptors; set-up: species or system rat
[1] = test system: bisected rat prostatic vas deferens

Q: Which “−log IC50 of noradrenaline for inhibition of the response to electrical stimulation” value (α2-adrenoceptors) does the source give for NC[C@H](O)c1ccc(O)c(O)c1 [noradrenaline, (−)-noradrenaline bitartrate] here?
A: The value was 5.96±0.052.

Q: For COc1cc2nc(N3CCN(C(=O)c4ccco4)CC3)nc(N)c2cc1OC [prazosin, prazosin hydrochloride], which “effect on second phase of the contraction” value [1] is on record?
A: The value was “inhibited”.

Q: Cc1ccc(C(=O)Nc2ccc(S(=O)(=O)O)c3cc(S(=O)(=O)O)cc(S(=O)(=O)O)c23)cc1NC(=O)c1cccc(NC(=O)Nc2cccc(C(=O)Nc3cc(C(=O)Nc4ccc(S(=O)(=O)O)c5cc(S(=O)(=O)O)cc(S(=O)(=O)O)c45)ccc3C)c2)c1 [suramin] was tested. Which “effect on initial phase of the contraction” value ([1]; 0.3 mM) did it give?
A: The value was “sensitive”.

Q: NC1=N[C@H](O)[C@H]2[C@H]3O[C@]4(O)O[C@@H]([C@@H](O)[C@@]2(N1)[C@@H]4O)[C@]3(O)CO [tetrodotoxin] was tested. Which “effect on contractions evoked by field stimulation” value [1] did it give?
A: The value was “abolished”.

Q: With CCLIPACRRNHKKFC [truncated ρ-TIA] as the compound, how does the “selective β1-adrenoceptor antagonist activity” value (β1-adrenoceptor) read?
A: Its value is “inactive”.
